Test results as given in US8889903B2, “Synthesis of rare earth metal extractant” (Shin-Etsu Chemical Co., Ltd., priority 2010, dated 2014).
Converted amounts (≈) assume the structure as drawn.

Assay: Solubility in water
Type: physicochemical
Method: If B/A<1.0, which means an excess of diglycolic anhydride for reaction, the desired dialkyl diglycol amic acid is obtained as the reaction product, in which unreacted diglycolic acid may remain. When solvent extraction is carried out using dialkyl diglycol amic acid having diglycolic acid left therein, no satisfactory separation ability is available and the solution becomes white turbid because clad is formed between organic phase and aqueous phase. […] This is because the diglycolic acid remaining along with the metal extractant, dialkyl diglycol amic acid forms a complex with a rare earth metal ion, inhibiting satisfactory extraction and separation. That is, diglycolic acid becomes an inhibitory factor to extraction. To obtain diglycolic acid-free dialkyl diglycol amic acid as the rare earth metal extractant capable of normal extraction and separation, the step of removing unreacted diglycolic acid is necessary as in the prior art method. Specifically, the water-soluble diglycolic acid must be removed by removing the synthesis medium and washing the reaction product with water. […] In order to use the dialkyl diglycol amic acid in crystallized form as the rare earth metal extractant, filtration and drying steps are needed. The process becomes less efficient because extra steps are necessary as compared with the range of 1.0≦B/A≦1.2.

## CCCCCCCCN(CCCCCCCC)C(=O)COCC(=O)O [DODGAA, N,N-dioctyl-3-oxapentane-1,5-amic acid]
  solubility in water: 6.2 µM (≈ 2.22 µg/mL)
